According to patent US20240124483A1, “Methods for the Treatment of Fibrotic Disease” (SHY Therapeutics, LLC, priority 2021, published 2024):
pIC50: −log10 of the molar value. Where two headings read alike, the source gives them in different places.

Experiments:
[1] = target: Rho-A (Homo sapiens (Human), UniProt P61586); assay: Ras GTP Binding Domain Inhibition Assay, Rho-A
Method: (§1) A Ras Superfamily Activity Assay (as disclosed in International Application No. PCT/US2018/038613, filed Jun. 20, 2018, which is incorporated by reference in its entirety) was used as a specific assay to evaluate compounds against the following for the following Ras Superfamily proteins: KRas wild type, KRas Q61H mutant, KRas G12C mutant, KRas G12D mutant, Rac-1, and Rho-A.
(§2) Buffer-I: • 25 mM Tris-HCl, pH 7.4 • 27 mM KCl • 137 mM NaCl • 1 mM MgCl2 • 1 mM DTT
(§3) Buffer-II: • 50 mM Tris-HCl, pH 7.0 • 1 mM MgCl2 • 1 mM DTT
(§4) The small GTPases proteins: KRas wild type. KRas Q61H mutant, KRas G12C mutant, KRas G12D mutants, Rac-1, and Rho-A were expressed as His-tagged proteins. In addition, the Guanosine nucleotide Exchange Factor (GEF) Sos protein (residues 556-1049) was expressed as a His-tagged protein. In cells, the guanine nucleotide exchange factor Sos protein promotes activation of Ras proteins by stimulating an exchange of GDP for GTP. The inclusion of Sos to the Ras GTP binding domain inhibition assay may be considered as an alternative representation of physiological cellular conditions for evaluating the inhibitory activity of some of the tested small molecules.
(§5) For the assay, all purified small GTPases proteins were diluted in Buffer-I or Buffer-II to a final concentration of 10-30 μg/mL. 200 μL of each diluted protein was added to a nickel-coated 96-well plate and incubated overnight at 4° C. Then the protein solution was discarded and 200 μL of Buffer-I or Buffer-II was added to each well in the presence of 1% DMSO. Compounds to be tested were added to the protein-coated wells at final concentration of 20 μM, and incubated for 3 hours at room temperature with and without 10-30 μg/mL of Sos added to the final hour of the incubation. When performing IC50 measurements a serial dilution of all tested concentrations was added. Then Cy3-GTP or Cy5-GTP was added to each well to a final concentration of 100 nM. The labeled GTP was incubated for 45 minutes at room temperature. Following GTP incubation, wells were washed 3× in Buffer-I or Buffer-II and 200 μL of Buffer-I or Buffer-II was added to each well. Following washes, the amount of bound labeled-GTP was measured using a SpectraMax M3 (Molecular Devices).

[2] = target: Rac-1 (Homo sapiens (Human), UniProt P63000); assay: Ras GTP Binding Domain Inhibition Assay, Rac-1
Method: as §1, §2, §3, §4, §5

[3] = system: Smad2/3 phosphorylation; assay: Phospho-Smad2/3 Inhibition Assay in Panc-1 (western blot); format: cell-based; conditions: Homo sapiens; for inhibition at 10 µM: 3 hours, PANC-1 stimulated with 10 ng/ml TGF-b1 for 1 hour, read-out: % inh of Smad2/3 phosphorylation in PANC-1; for pIC50: PANC-1, TGF-b1 stimulated
Method: Cell lines: Human tumor-derived pancreatic cancer cell line Panc-1 and mouse muscle myoblast C2C12 were purchased from American Type Culture Collection and grown in complete DMEM-High Glucose, supplemented with penicillin (100 U/mL), streptomycin (100 μg/mL), and 10% heat-inactivated FBS at 37° C. in a humidified incubator with 5% CO2.
Method: Cells were plated at 350000 cells/well density in a 12-well plate, allowed 3 hours to adhere to the plate, then starved in the appropriate medium in the presence of 0.5% FBS overnight. The small molecules to be tested were added to the cells in the final concentration of 10 μM in the presence of 0.3% DMSO for 3 hours incubation at 37° C. For IC50 value determination, serial dilutions of compounds were added to cells under the same conditions. Next, Panc-1 cells were stimulated with 10 ng/ml TGF-b1 for 1 hour, and C2C12 cells were stimulated with 10 ng/ml TGF-b1 for 20 minutes (recombinant human TGF-b1, R&D Systems). After stimulation cells were lysed with lysis buffer containing 1% Triton X-100, EDTA, and Halt™ Protease & Phosphatase Inhibitor Cocktail (Thermo Scientific). Protein concentration was assessed by BCA protein assay (Thermo Scientific). Phosphorylation level of Smad2/Smad3 was determined by western blot.
Western blot protocol: Equal amounts of protein (15-50 μg) were separated by SDS-PAGE and transferred to nitrocellulose membranes (Invitrogen by Thermo Fisher Scientific). The membrane was stained with Ponceau S Stain (Boston BioProducts) to verify uniform protein loading. Membranes were blocked with 10% milk and phosphorylation levels of Smad2/Smad3 were assessed by incubating overnight at 4° C. with the following antibodies: Phospho-Smad2 (Ser465/467) and Phosph-Smad3 (Ser423/425), both from Cell Signaling Technology. Then the membranes were incubated with HRP-conjugated secondary antibody (Jackson Immunoresearch, West Grove, PA). Bands were incubated in Amersham ECL Prime Western Blotting Detection Reagent (GE Healthcare) and visualized using the ChemiDoc MP imaging system (Bio-Rad).

[4] = target: KRas G12D mutant (Homo sapiens (Human), UniProt P01116, G12D); assay: Ras GTP Binding Domain Inhibition Assay, KRas G12D mutant; conditions: for inhibition at 20 µM: Table 7; for KRas G12D mutant + SOS: % inh. / KRas G12D mutant: % inh.: 20 uM, Table 8
Method: as §1, §2, §3, §4, §5

[5] = target: KRas G12C mutant (Homo sapiens (Human), UniProt P01116, G12C); assay: Ras GTP Binding Domain Inhibition Assay, KRas G12C mutant
Method: as §1, §2, §3, §4, §5

[6] = without SOS, read-out: Rho-A: % inh.
[7] = without SOS, read-out: Rac-1: % inh.
[8] = + SOS, read-out: KRas G12D mutant + SOS: % inh.
[9] = without SOS, read-out: KRas G12D mutant: % inh.
[10] = without SOS, read-out: KRas G12C mutant: % inh.
[11] = + SOS, read-out: Rho-A + SOS: % inh.
[12] = + SOS, read-out: Rac-1 + SOS: % inh.
[13] = + SOS, read-out: KRas G12C mutant + SOS: % inh.

KRas G12C mutant, sequence (P01116 other isoform, or with tags, fused parts or gaps G12C): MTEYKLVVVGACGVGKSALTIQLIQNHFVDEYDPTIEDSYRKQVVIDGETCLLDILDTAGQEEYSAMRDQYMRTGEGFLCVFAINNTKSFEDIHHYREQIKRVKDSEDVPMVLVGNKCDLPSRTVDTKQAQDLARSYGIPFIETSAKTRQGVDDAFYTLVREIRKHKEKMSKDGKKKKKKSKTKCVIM
KRas G12D mutant, sequence (P01116 other isoform, or with tags, fused parts or gaps G12D): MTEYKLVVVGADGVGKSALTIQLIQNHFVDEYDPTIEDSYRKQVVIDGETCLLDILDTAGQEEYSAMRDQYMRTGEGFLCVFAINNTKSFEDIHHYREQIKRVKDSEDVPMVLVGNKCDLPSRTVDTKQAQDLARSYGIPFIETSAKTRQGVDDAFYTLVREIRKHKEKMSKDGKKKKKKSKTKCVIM
Rho-A, sequence (P61586 whole entry, species assumed, the tested form may be a part): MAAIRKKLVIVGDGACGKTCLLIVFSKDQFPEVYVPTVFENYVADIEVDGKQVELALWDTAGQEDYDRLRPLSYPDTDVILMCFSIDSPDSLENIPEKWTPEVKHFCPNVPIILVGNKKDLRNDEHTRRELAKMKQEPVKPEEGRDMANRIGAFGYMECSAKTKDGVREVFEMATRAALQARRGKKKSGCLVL

Row | SMILES | inhibition at 20 µM [1, 6] [%] | inhibition at 20 µM [2, 7] [%] | inhibition at 20 µM [4, 8] [%] | KRas G12D mutant + SOS: % inh. ([4]; + SOS) | inhibition at 20 µM [4, 9] [%] | KRas G12D mutant: % inh. ([4]; without SOS) | inhibition at 20 µM [5, 10] [%] | inhibition at 20 µM [1, 11] [%] | inhibition at 20 µM [2, 12] [%] | inhibition at 20 µM [5, 13] [%] | pIC50 [3] | inhibition at 10 µM [3] [%]
1 | COC1CCN(c2nc(-c3nccn3C)nc3sc(-c4ccn(C)n4)c(-c4ccccc4)c23)CC1 [Compound 6, 4-(4-Methoxypiperidin-1-yl)-2-(1-methyl-1H-imidazol-2-yl)-6-(1-methyl-1H-pyrazol-3-yl)-5-phenylthieno[2,3-d]pyrimidine] | 0 | 26 to 45 | 26 to 45 | B (B = 26-45% inhibition) | 26 to 45 | B (B = 26-45% inhibition) | 26 to 45 | 0 | 26 to 45 | 46 to 75 |  | 0
2 | COCCNc1nc(-c2cn(C)cn2)nc2sc(-c3cccc(OC)c3Cl)c(-c3ccc(OC)cc3)c12 [Compound 8, 6-(2-Chloro-3-methoxyphenyl)-N-(2-methoxyethyl)-5-(4-methoxyphenyl)-2-(1-methyl-1H-imidazol-4-yl)thieno[2,3-d]pyrimidin-4-amine] | 46 to 75 | 46 to 75 | 26 to 45 | B (B = 26-45% inhibition) | 26 to 45 | B (B = 26-45% inhibition) | 26 to 45 | 46 to 75 | 46 to 75 | 76 to 100 | 5.00 to 5.30 | 76 to 100
3 | COCCNc1nc(-c2nccn2C)nc2sc(-c3cccc(OC)c3Cl)c(-c3ccccc3)c12 [Compound 9, 6-(2-Chloro-3-methoxyphenyl)-N-(2-methoxyethyl)-2-(1-methyl-1H-imidazol-2-yl)-5-phenylthieno[2,3-d]pyrimidin-4-amine] | 26 to 45 | 46 to 75 | 46 to 75 | C (C = 46-75% inhibition) | 46 to 75 | C (C = 46-75% inhibition) | 26 to 45 | 26 to 45 | 46 to 75 | 76 to 100 | 5.30 to 6.00 | 76 to 100
4 | CO[C@H]1C[C@H](CNc2nc(-c3nccn3C)nc3sc(-c4ccn(C(C)C)n4)c(C)c23)C1 [Compound 16, 6-(1-Isopropyl-1H-pyrazol-3-yl)-N-(((1r,3r)-3-methoxycyclobutyl)methyl)-5-methyl-2-(1-methyl-1H-imidazol-2-yl)thieno[2,3-d]pyrimidin-4-amine] | 46 to 75 | 26 to 45 | 46 to 75 | C (C = 46-75% inhibition) | 26 to 45 | B (B = 26-45% inhibition) | 46 to 75 |  |  | 46 to 75 |  | 1 to 25
5 | COc1cccc(Nc2nc(-c3nccn3C)nc3sc(-c4ccn(C(C)C)n4)c(C)c23)c1 [Compound 17, 6-(1-Isopropyl-1H-pyrazol-3-yl)-N-(3-methoxyphenyl)-5-methyl-2-(1-methyl-1H-imidazol-2-yl)thieno[2,3-d]pyrimidin-4-amine] | 46 to 75 | 26 to 45 | 46 to 75 | C (C = 46-75% inhibition) | 46 to 75 | C (C = 46-75% inhibition) | 46 to 75 |  |  | 76 to 100 |  | 46 to 75

More lines, main results first:

Row | inhibition at 20 µM [1, 6] [%] | inhibition at 20 µM [2, 7] [%] | inhibition at 20 µM [4, 8] [%] | KRas G12D mutant + SOS: % inh. ([4]; + SOS) | inhibition at 20 µM [4, 9] [%] | KRas G12D mutant: % inh. ([4]; without SOS) | inhibition at 20 µM [5, 10] [%] | inhibition at 20 µM [1, 11] [%] | inhibition at 20 µM [2, 12] [%] | inhibition at 20 µM [5, 13] [%] | pIC50 [3] | SMILES | inhibition at 10 µM [3] [%]
6 | 46 to 75 | 46 to 75 | 1 to 25 | A (A = 1-25% inhibition) | 46 to 75 | C (C = 46-75% inhibition) | 46 to 75 |  |  |  |  | COCCCNc1nc(-c2nccn2C)nc2sc(-c3ccccc3)c(-c3ccccc3)c12 [Compound 3, N-(3-Methoxypropyl)-2-(1-methyl-1H-imidazol-2-yl)-5,6-diphenylthieno[2,3-d]pyrimidin-4-amine] | 0
7 | 26 to 45 | 26 to 45 |  |  | 26 to 45 | B (B = 26-45% inhibition) | 26 to 45 |  |  |  |  | COCCNc1nc(-c2nccn2C)nc2sc(-c3ccccc3)c(-c3ccccc3Cl)c12 [Compound 4, 5-(2-Chlorophenyl)-N-(2-methoxyethyl)-2-(1-methyl-1H-imidazol-2-yl)-6-phenylthieno[2,3-d]pyrimidin-4-amine] | 26 to 45
8 | 26 to 45 | 46 to 75 | 26 to 45 | B (B = 26-45% inhibition) | 26 to 45 | B (B = 26-45% inhibition) | 26 to 45 | 46 to 75 | 46 to 75 | 76 to 100 | 5.00 to 5.30 | COCCNc1nc(-c2nccn2C)nc2sc(-c3cccc(OC)c3Cl)c(-c3ccc(OC)cc3)c12 [Compound 7, 6-(2-Chloro-3-methoxyphenyl)-N-(2-methoxyethyl)-5-(4-methoxyphenyl)-2-(1-methyl-1H-imidazol-2-yl)thieno[2,3-d]pyrimidin-4-amine] | 0
9 | 76 to 100 | 76 to 100 | 76 to 100 | D (D = 76-100% inhibition) | 46 to 75 | C (C = 46-75% inhibition) | 76 to 100 | 76 to 100 | 76 to 100 | 76 to 100 |  | COCCn1ccnc1-c1nc(N[C@H]2C[C@@H](OC)C2)c2c(-c3ccccc3)c(-c3ccn(C)n3)sc2n1 [Compound 13, N-((1s,3s)-3-methoxycyclobutyl)-2-(1-(2-methoxyethyl)-1H-imidazol-2-yl)-6-(1-methyl-1H-pyrazol-3-yl)-5-phenylthieno[2,3-d]pyrimidin-4-amine] | 46 to 75
